Laboratory results published in US20250136586A1, “Substituted 7-(Pyrimidin-4-yl)Quinolin-4(1H)-One Compounds as Cyclin Dependent Kinase Inhibitors” (BeiGene, Ltd., priority 2022, published 2025).

What was measured:
CDK4/Cyclin D1 = CDK4/Cyclin D1 (Homo sapiens (Human), UniProt P11802); test: TR-FRET kinase inhibition assay, CDK4/Cyclin D1; assay type: biochemical; details: 1 mM ATP, 0.15 μM Rb (Ser780)-biotin substrate, read-out: CDK4D1 IC50
How it was run: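 Kinase was preincubated with compound for 60 min at room temperature, then reacted with ATP and Rb (Ser780)-biotin substrate for 120 min. IC50 came from a four-parameter logistic fit.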

CDK6/Cyclin D3 = CDK6/Cyclin D3 (Homo sapiens (Human), UniProt Q00534); test: TR-FRET kinase inhibition assay, CDK6/Cyclin D3; assay type: biochemical; details: 1 mM ATP, 0.15 μM Rb (Ser780)-biotin substrate, read-out: CDK6D3 IC50
How it was run: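 Kinase preincubated 60 min at room temperature with 0–10 μM compound; reaction started with 1 mM ATP and 0.15 μM Rb (Ser780)-biotin, run 120 min at room temperature in HEPES pH 7.0, 50 mM MgCl2. pRb detected by TR-FRET (665/620 nm ratio); IC50 from four-parameter logistic fit.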

Sequence of CDK4/Cyclin D1 (P11802 whole entry): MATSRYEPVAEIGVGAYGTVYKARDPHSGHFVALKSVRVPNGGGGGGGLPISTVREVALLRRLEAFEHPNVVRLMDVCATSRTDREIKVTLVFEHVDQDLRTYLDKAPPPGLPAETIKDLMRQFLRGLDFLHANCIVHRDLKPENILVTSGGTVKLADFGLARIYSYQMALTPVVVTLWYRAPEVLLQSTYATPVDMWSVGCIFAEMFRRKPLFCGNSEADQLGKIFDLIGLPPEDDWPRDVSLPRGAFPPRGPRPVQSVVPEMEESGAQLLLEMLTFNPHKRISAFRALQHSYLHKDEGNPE
Sequence of CDK4/Cyclin D1 (P24385 whole entry partner): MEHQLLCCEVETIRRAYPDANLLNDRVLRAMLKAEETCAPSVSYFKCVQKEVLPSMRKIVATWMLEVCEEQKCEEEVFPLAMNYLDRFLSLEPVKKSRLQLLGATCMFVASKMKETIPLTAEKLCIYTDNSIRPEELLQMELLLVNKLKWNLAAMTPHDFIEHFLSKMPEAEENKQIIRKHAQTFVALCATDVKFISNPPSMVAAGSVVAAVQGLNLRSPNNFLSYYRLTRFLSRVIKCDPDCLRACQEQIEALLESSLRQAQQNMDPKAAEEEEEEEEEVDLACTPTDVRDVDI
Sequence of CDK6/Cyclin D3 (Q00534 whole entry): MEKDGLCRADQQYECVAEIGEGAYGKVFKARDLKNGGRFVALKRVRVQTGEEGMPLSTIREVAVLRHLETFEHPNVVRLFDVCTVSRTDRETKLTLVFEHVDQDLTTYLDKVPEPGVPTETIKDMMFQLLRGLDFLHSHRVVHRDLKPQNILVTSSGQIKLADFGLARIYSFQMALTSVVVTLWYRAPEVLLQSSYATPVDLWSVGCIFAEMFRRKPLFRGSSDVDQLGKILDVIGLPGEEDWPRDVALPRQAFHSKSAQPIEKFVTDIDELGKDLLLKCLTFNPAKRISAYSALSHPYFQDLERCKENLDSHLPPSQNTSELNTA
Sequence of CDK6/Cyclin D3 (P30281 whole entry partner): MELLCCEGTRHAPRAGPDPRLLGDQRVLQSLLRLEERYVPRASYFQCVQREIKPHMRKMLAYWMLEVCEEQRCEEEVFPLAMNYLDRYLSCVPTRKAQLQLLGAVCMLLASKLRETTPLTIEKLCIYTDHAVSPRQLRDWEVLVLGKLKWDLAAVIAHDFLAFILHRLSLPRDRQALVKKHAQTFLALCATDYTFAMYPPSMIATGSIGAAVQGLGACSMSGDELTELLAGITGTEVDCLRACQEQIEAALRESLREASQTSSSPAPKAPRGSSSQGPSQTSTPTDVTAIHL

IC50 (CDK4/Cyclin D1) [nM]	IC50 (CDK6/Cyclin D3) [nM]	Compound
30	780	CC(C)n1c(CN2CC(O)C2)cc(=O)c2ccc(-c3nc(N[C@@H]4CCOC[C@H]4O)ncc3F)cc21 [Example 30, 7-(5-fluoro-2-(((3S,4R)-3-hydroxytetrahydro-2H-pyran-4-yl)amino)pyrimidin-4-yl)-2-((3-hydroxyazetidin-1-yl)methyl)-1-isopropylquinolin-4(1H)-one]
42	714	CNC(=O)c1cc(=O)c2ccc(-c3nc(N[C@@H]4CCOC[C@H]4O)ncc3Cl)cc2n1C(C)C [Example 14, 7-(5-chloro-2-(((3S,4R)-3-hydroxytetrahydro-2H-pyran-4-yl)amino)pyrimidin-4-yl)-1-isopropyl-N-methyl-4-oxo-1,4-dihydroquinoline-2-carboxamide]
15	330	Cc1c(CN2CC3CCC(C2)O3)n(C(C)C)c2cc(-c3nc(N[C@@H]4CCOC[C@H]4O)ncc3F)ccc2c1=O [Example 102, 2-((8-oxa-3-azabicyclo[3.2.1]octan-3-yl)methyl)-7-(5-fluoro-2-(((3S,4R)-3-hydroxytetrahydro-2H-pyran-4-yl)amino)pyrimidin-4-yl)-1-isopropyl-3-methylquinolin-4(1H)-one]
35	385	CC(C)n1c(C(=O)NCCC#N)cc(=O)c2ccc(-c3nc(N[C@@H]4CCOC[C@H]4O)ncc3Cl)cc21 [Example 21, 7-(5-chloro-2-(((3S,4R)-3-hydroxytetrahydro-2H-pyran-4-yl)amino)pyrimidin-4-yl)-N-(2-cyanoethyl)-1-isopropyl-4-oxo-1,4-dihydroquinoline-2-carboxamide]
28	588	CC(C)n1c(CNC2CCC2)cc(=O)c2ccc(-c3nc(N[C@@H]4CCOC[C@H]4O)ncc3F)cc21 [Example 76, 2-((cyclobutylamino)methyl)-7-(5-fluoro-2-(((3S,4R)-3-hydroxytetrahydro-2H-pyran-4-yl)amino)pyrimidin-4-yl)-1-isopropylquinolin-4(1H)-one]
6.9	276	CC(C)n1c(CN)cc(=O)c2ccc(-c3nc(N[C@@H]4CCOC[C@H]4O)ncc3F)cc21 [Example 35]
7.4	340	CC(C)n1c(CN2[C@H](C)COC[C@@H]2C)cc(=O)c2ccc(-c3nc(N[C@@H]4CCOC[C@H]4O)ncc3F)cc21 [Example 107, 2-(((3R,5S)-3,5-dimethylmorpholino)methyl)-7-(5-fluoro-2-(((3S,4R)-3-hydroxytetrahydro-2H-pyran-4-yl)amino)pyrimidin-4-yl)-1-isopropylquinolin-4(1H)-one]
14	574	CNC(=O)c1cc(=O)c2ccc(-c3nc(N[C@@H]4CCOC[C@H]4O)ncc3F)cc2n1C(C)C [Example 7, 7-(5-fluoro-2-(((3S,4R)-3-hydroxytetrahydro-2H-pyran-4-yl)amino)pyrimidin-4-yl)-1-isopropyl-N-methyl-4-oxo-1,4-dihydroquinoline-2-carboxamide]
1.1	51.7	Cc1c(CN2[C@@H](C)COC[C@@H]2C)n(C(C)C)c2cc(-c3nc(N[C@@H]4CCOC[C@H]4O)ncc3F)ccc2c1=O [Example 118, 2-(((3S,5S)-3,5-dimethylmorpholino)methyl)-7-(5-fluoro-2-(((3S,4R)-3-hydroxytetrahydro-2H-pyran-4-yl)amino)pyrimidin-4-yl)-1-isopropyl-3-methylquinolin-4(1H)-one]
10	430	CC(C)n1c(CN2C[C@@H]3C[C@H]2CO3)cc(=O)c2ccc(-c3nc(N[C@@H]4CCOC[C@H]4O)ncc3F)cc21 [Example 34, 2-(((1S,4S)-2-oxa-5-azabicyclo[2.2.1]heptan-5-yl)methyl)-7-(5-fluoro-2-(((3S,4R)-3-hydroxytetrahydro-2H-pyran-4-yl)amino)pyrimidin-4-yl)-1-isopropylquinolin-4(1H)-one]
251	979	CC(=O)c1cn(C(C)C)c2cc(-c3nc(N[C@@H]4CCOC[C@H]4O)ncc3F)ccc2c1=O [Example 4, 3-acetyl-7-(5-fluoro-2-(((3S,4R)-3-hydroxytetrahydro-2H-pyran-4-yl)amino)pyrimidin-4-yl)-1-isopropylquinolin-4(1H)-one]
26	598	CC(C)n1c(CNC2CC(F)(F)C2)cc(=O)c2ccc(-c3nc(N[C@@H]4CCOC[C@H]4O)ncc3F)cc21 [Example 77, 2-(((3,3-difluorocyclobutyl)amino)methyl)-7-(5-fluoro-2-(((3S,4R)-3-hydroxytetrahydro-2H-pyran-4-yl)amino)pyrimidin-4-yl)-1-isopropylquinolin-4(1H)-one]
59	590	CC(C)n1cc(C2CC2)c(=O)c2ccc(-c3nc(N[C@@H]4CCOC[C@H]4O)ncc3F)cc21 [Example 9, 3-cyclopropyl-7-(5-fluoro-2-(((3S,4R)-3-hydroxytetrahydro-2H-pyran-4-yl)amino)pyrimidin-4-yl)-1-isopropylquinolin-4(1H)-one]
15	645	CC(C)n1c(CN2CCC(C)(C)C2)cc(=O)c2ccc(-c3nc(N[C@@H]4CCOC[C@H]4O)ncc3F)cc21 [Example 42, 2-((3,3-dimethylpyrrolidin-1-yl)methyl)-7-(5-fluoro-2-(((3S,4R)-3-hydroxytetrahydro-2H-pyran-4-yl)amino)pyrimidin-4-yl)-1-isopropylquinolin-4(1H)-one]
12	324	CC(C)n1c(CN2C[C@H]3C[C@@H]2CO3)cc(=O)c2ccc(-c3nc(N[C@@H]4CCOC[C@H]4O)ncc3F)cc21 [Example 33, 2-(((1R,4R)-2-oxa-5-azabicyclo[2.2.1]heptan-5-yl)methyl)-7-(5-fluoro-2-(((3S,4R)-3-hydroxytetrahydro-2H-pyran-4-yl)amino)pyrimidin-4-yl)-1-isopropylquinolin-4(1H)-one]
30	810	CC(C)n1c(CN2CC(F)C2)cc(=O)c2ccc(-c3nc(N[C@@H]4CCOC[C@H]4O)ncc3F)cc21 [Example 74, 7-(5-fluoro-2-(((3S,4R)-3-hydroxytetrahydro-2H-pyran-4-yl)amino)pyrimidin-4-yl)-2-((3-fluoroazetidin-1-yl)methyl)-1-isopropylquinolin-4(1H)-one]
15	510	CC(C)n1c(CN(C)C)cc(=O)c2ccc(-c3nc(N[C@@H]4CCOC[C@H]4O)ncc3F)cc21 [Example 20, 2-((dimethylamino)methyl)-7-(5-fluoro-2-(((3S,4R)-3-hydroxytetrahydro-2H-pyran-4-yl)amino)pyrimidin-4-yl)-1-isopropylquinolin-4(1H)-one]
28	420	Cc1cc(=O)c2ccc(-c3nc(N[C@@H]4CCOC[C@H]4O)ncc3Cl)cc2n1C(C)C [Example 11, 7-(5-chloro-2-(((3S,4R)-3-hydroxytetrahydro-2H-pyran-4-yl)amino)pyrimidin-4-yl)-1-isopropyl-2-methylquinolin-4(1H)-one]
13	260	CC(C)n1c(CN2CCC(F)(F)CC2)cc(=O)c2ccc(-c3nc(N[C@@H]4CCOC[C@H]4O)ncc3F)cc21 [Example 54, 2-((4,4-difluoropiperidin-1-yl)methyl)-7-(5-fluoro-2-(((3S,4R)-3-hydroxytetrahydro-2H-pyran-4-yl)<amino)pyrimidin-4-yl)-1-isopropylquinolin-4(1H)-one]
21	777	CC(C)n1c(CN2CC[C@H](O)C2)cc(=O)c2ccc(-c3nc(N[C@@H]4CCOC[C@H]4O)ncc3F)cc21 [Example 86, 7-(5-fluoro-2-(((3S,4R)-3-hydroxytetrahydro-2H-pyran-4-yl)amino)pyrimidin-4-yl)-2-(((S)-3-hydroxypyrrolidin-1-yl)methyl)-1-isopropylquinolin-4(1H)-one]
11	165	CC(C)n1c(CN2CCOC[C@@H]2C)cc(=O)c2ccc(-c3nc(N[C@@H]4CCOC[C@H]4O)ncc3F)cc21 [Example 53, 7-(5-fluoro-2-(((3S,4R)-3-hydroxytetrahydro-2H-pyran-4-yl)amino)pyrimidin-4-yl)-1-isopropyl-2-(((S)-3-methylmorpholino)methyl)quinolin-4(1H)-one]
11	165	CC(C)n1c(CNc2ccccc2)cc(=O)c2ccc(-c3nc(N[C@@H]4CCOC[C@H]4O)ncc3F)cc21 [Example 94, 7-(5-fluoro-2-(((3S,4R)-3-hydroxytetrahydro-2H-pyran-4-yl)amino)pyrimidin-4-yl)-1-isopropyl-2-((phenylamino)methyl)quinolin-4(1H)-one]
19	494	CC(C)n1c(CN2CC[C@H](F)[C@@H](O)C2)cc(=O)c2ccc(-c3nc(N[C@@H]4CCOC[C@H]4O)ncc3F)cc21 [Example 85, 7-(5-fluoro-2-(((3S,4R)-3-hydroxytetrahydro-2H-pyran-4-yl)amino)pyrimidin-4-yl)-2-(((3S,4S)-4-fluoro-3-hydroxypiperidin-1-yl)methyl)-1-isopropylquinolin-4(1H)-one]

Compound	IC50 (CDK4/Cyclin D1) [nM]	IC50 (CDK6/Cyclin D3) [nM]
CC(C)n1c(CN2C3CCC2COC3)cc(=O)c2ccc(-c3nc(N[C@@H]4CCOC[C@H]4O)ncc3F)cc21 [Example 29, 2-((3-oxa-8-azabicyclo[3.2.1]octan-8-yl)methyl)-7-(5-fluoro-2-(((3S,4R)-3-hydroxytetrahydro-2H-pyran-4-yl)amino)pyrimidin-4-yl)-1-isopropylquinolin-4(1H)-one]	19	361
